Reference: patent US5045530A, “Pharmaceutical preparations” (priority 1986, dated 1991)
Values joined by “and” are separate entries in the source; they are usually repeats but may differ in a detail not shown here. Identical values can stand only once. Like-named read-outs stand apart in the source and are kept apart here.

Columns and labels:
[1] = critical micellization concentration (cmc); format: physicochemical
[2] = hydrodynamic (Stokes) radius / size of micelles and vesicles, inelastic light scattering; format: physicochemical
[3] = target: B. subtilis DNA polymerase III (Bacillus subtilis, UniProt P13267); experiment: inhibition of DNA polymerase III by micellarly included Hg(CN)2 and Hg(CN)2 ascorbate; format: biochemical; conditions: micellarly included Hg(CN)2 / Hg(CN)2 ascorbate in the tenside named
Procedure: Analogously to example 2 10 mg Hg(CN)2 and 40 mg Na ascorbate at pH 7.0 are dissolved in 10 ml phosphate buffer. The suspension is subjected to an ultrasonic treatment at 0° C. for 5 min, slowly heated to 20° C. and centrifuged to a 10% (^w /w) linear glycerol gradient in a preparative ultracentrifuge at 1000 xg for 6 hours (20° C., Polyalomer tubes).
The inhibitor concentrations are given in 50% of the complete inhibition. The assay which was used is that according to Clements, J; D'Ambrosio, J; Brown, N.C; J.Biol.Chem. (1975) 250, 522 and Wright, G.E.; Brown, N.C; Biochem. Biophys. Acta (1976) 432, 37.

influenza A virus = format: cell-based
influenza A strains [4] = format: cell-based, influenza virus type A
influenza virus type B = experiment: inhibition of influenza B in vitro; format: cell-based
Procedure: Amantadine (1-adamantanamine-HCl) has a particular pharmadynamic action against influenza viruses (class A). The replication of most influenza A strains is inhibited in vitro between 0.2-0.6 μg/ml. Micellarly included amantadine in cationic micelles, in particular of the form (Het≡N--(CH2)x --CH3)Y⊖, effect a reduction of the concentration of pharmaceutical active substance to 0.05 μg/ml amantadine, measured by Hayden et al. (Plaque inhibition assay for drug susceptibility resting of influenza viruses. Antimicrob. Ag. Chemother. 1980, 17: […]; Grunert et al.; Sensitivity of influenza A/New Jersey 18/76/(Hswl-Nl) virus to amantadine HCl, J. Inf. Dis. 1977, 136, 297-300).
With a concentration of 0.01% by weight of amantadine for influenza virus type B corresponding to a concentration of 0.5 μg/ml pharmaceutical active substance in vitro.

influenza A strains [5] = conditions: amantadine on its own, in vitro; cited from earlier work
[6] = micellar incorporation of active substances by dialysis, extinction at 260 nm; format: physicochemical; conditions: hexadecylpyridinium chloride micelles, 20° C., pH 5.5
[7] = test system: influenza virus, subgroup A2; Herpes simplex virus HSV I-III; format: cell-based; conditions: monolayer cells infected with Herpes simplex virus type 1 or influenza virus type A2; with N+-tensides of formula I and II
pyrimidine biosynthesis = experiment: pyrimidine biosynthesis; conditions: micellarly included
salivary secretion = conditions: in vivo
fungus = experiment: antifungal effect in combination with N-tensides; conditions: combination with N+ tensides of formula I and II
adenosine-desaminase = target: T1, adenosine-desaminase (Homo sapiens, UniProt P00813); experiment: antitumor activity of micellarly dissolved adenosine-desaminase inhibitors; conditions: dissolved micellarly according to formula I and II
T1 sequence (P00813 1-363): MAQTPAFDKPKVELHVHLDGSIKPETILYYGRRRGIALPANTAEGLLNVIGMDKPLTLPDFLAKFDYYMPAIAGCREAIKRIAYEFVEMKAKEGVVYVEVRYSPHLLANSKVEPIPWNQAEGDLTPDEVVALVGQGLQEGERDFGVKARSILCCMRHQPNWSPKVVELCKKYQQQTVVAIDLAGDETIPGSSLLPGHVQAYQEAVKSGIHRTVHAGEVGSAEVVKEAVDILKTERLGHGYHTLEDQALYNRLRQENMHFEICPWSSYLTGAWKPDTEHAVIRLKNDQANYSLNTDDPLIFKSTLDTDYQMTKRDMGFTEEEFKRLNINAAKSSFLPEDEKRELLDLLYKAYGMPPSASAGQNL

[8] = in vivo; cited from earlier work

Sequence of B. subtilis DNA polymerase III (P13267 whole entry): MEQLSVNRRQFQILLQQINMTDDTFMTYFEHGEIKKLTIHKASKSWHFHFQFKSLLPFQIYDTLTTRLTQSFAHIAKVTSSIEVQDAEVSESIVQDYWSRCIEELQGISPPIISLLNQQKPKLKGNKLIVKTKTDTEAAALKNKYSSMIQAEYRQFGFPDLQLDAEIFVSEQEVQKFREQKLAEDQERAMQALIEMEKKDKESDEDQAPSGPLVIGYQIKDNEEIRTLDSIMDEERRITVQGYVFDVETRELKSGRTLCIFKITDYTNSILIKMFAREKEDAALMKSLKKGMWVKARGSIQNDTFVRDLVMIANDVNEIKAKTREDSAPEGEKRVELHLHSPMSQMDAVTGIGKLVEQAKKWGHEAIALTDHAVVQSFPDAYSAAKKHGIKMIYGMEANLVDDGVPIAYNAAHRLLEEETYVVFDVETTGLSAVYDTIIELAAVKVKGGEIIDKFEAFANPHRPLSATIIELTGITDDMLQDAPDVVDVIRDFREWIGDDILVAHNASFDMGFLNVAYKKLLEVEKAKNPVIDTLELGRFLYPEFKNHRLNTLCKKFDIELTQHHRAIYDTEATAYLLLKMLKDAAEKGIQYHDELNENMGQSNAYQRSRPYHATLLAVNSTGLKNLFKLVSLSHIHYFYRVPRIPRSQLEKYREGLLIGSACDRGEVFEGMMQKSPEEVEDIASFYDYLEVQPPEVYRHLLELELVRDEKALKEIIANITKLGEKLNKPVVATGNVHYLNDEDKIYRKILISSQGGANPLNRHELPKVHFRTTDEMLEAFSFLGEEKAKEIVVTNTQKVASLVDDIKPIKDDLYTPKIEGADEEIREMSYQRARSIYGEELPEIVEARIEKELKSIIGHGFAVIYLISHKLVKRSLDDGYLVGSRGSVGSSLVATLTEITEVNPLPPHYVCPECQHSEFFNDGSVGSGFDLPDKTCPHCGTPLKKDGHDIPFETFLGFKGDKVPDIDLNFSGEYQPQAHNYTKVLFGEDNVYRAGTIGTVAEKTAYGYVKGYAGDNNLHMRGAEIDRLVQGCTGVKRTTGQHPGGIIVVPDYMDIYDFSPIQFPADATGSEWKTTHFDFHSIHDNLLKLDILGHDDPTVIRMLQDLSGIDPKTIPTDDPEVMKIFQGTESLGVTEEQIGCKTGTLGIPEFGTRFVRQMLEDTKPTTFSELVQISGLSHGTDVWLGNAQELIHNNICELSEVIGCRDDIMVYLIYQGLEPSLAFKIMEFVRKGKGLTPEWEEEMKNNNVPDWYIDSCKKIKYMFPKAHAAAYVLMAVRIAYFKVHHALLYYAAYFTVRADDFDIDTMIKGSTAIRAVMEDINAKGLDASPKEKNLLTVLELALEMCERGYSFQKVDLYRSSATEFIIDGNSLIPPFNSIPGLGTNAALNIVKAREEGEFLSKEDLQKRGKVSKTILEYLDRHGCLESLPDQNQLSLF

## 2,5-Dimethyl-3-hexadecyl-thiazolium
[1]; Table 2, HET≡N+-(CH2)x-CH3 Y-
  cmc × 10^-6 M: 15.00 × 10^-6 M

## 2,6-Dihydroxy-dodecyl-pyrimidinium
[1]; Table 2, HET≡N+-(CH2)x-CH3 Y-
  cmc × 10^-6 M: 1.90 × 10^-6 M

## 2-Carboxamid-3-hexadecyl-1,4-pyridinium
[2]; Table 3, counter ion Y- = NO3-
  <RH> hydrodynamic radius: 440 Å

## 2-Hydroxy,5-methyl,6-amino-hexadecyl-pyrimidinium
[1]; Table 2, HET≡N+-(CH2)x-CH3 Y-
  cmc × 10^-6 M: 1.00 × 10^-6 M

## 2-Hydroxy,6-amino-hexadecyl-pyrimidinium
[1]; Table 2, HET≡N+-(CH2)x-CH3 Y-
  cmc × 10^-6 M: 2.00 × 10^-6 M

## 2-carboxamid-3-dodecyl-1,4-pyridinium
[2]; Table 3, counter ion Y- = NO3-
  <RH> hydrodynamic radius: 366 Å

## 3,5-bis[n-hexadecyloxy-carbonyl]-N-methyl-pyridinium
[3]
  competitive with: dGTP

## 3-Dodecyl-6-methyl-benzimidazolium
[1]; Table 2, HET≡N+-(CH2)x-CH3 Y-
  cmc × 10^-6 M: 7.30 × 10^-6 M

## 3-Hexadecyl-5,6-dihydroxy-benzthiazolium
[1]; Table 2, HET≡N+-(CH2)x-CH3 Y-
  cmc × 10^-6 M: 7.90 × 10^-6 M

## 3-Hexadecyl-6-methyl-benzimidazolium
[1]; Table 2, HET≡N+-(CH2)x-CH3 Y-
  cmc × 10^-6 M: 17.00 × 10^-6 M

## 3-Hexadecylbenzimidazolium
[1]; Table 2, HET≡N+-(CH2)x-CH3 Y-
  cmc × 10^-6 M: 6.70 × 10^-6 M

## 3-Hexadecylthiazolium
[1]; Table 2, HET≡N+-(CH2)x-CH3 Y-
  cmc × 10^-6 M: 0.91 × 10^-6 M

## 3-[[(Dimethylamino)-carboxyl]oxyl]-1-hexadecyl-pyridinium
[3]
  competitive with: dATP

## 4-Methyl- -2-hexadecyl-pyrazolium
[1]; Table 2, HET≡N+-(CH2)x-CH3 Y-
  cmc × 10^-6 M: 0.70 × 10^-6 M

## 5-Methyl-1-hexadecylimidazolium
[1]; Table 2, HET≡N+-(CH2)x-CH3 Y-
  cmc × 10^-6 M: 3.90 × 10^-6 M

## 8-Ketohexadecylpyridinium
[3]
  competitive with: dGTP

## Cl.NC12CC3CC(CC(C3)C1)C2 [1-adamantaneamine HCl, 1-adamantanamine-HCl]
Influenza A virus
  Inhibition, 10log (pfu/ml of the inhibitor)/(pfu/ml check): -1.11
  Titration of infection, Plaque forming units: 2 × 10^6
Influenza A strains [4]
  concentration of active substance for inhibition: 0.05 µg/mL
Influenza virus type B; amantadine on its own
  activity against influenza virus type B: practically no activity
Influenza virus type B; micellarly included in cationic tensides, 0.01% by weight of amantadine
  concentration showing inhibition of influenza virus type B: 0.5 µg/mL
Influenza A strains [5]
  concentration inhibiting replication of most influenza A strains: 0.2 to 0.6 µg/mL

## CCCCCCCCCCCCCCCC[n+]1c(O)ncc(F)c1O [2,6-Dihydroxy,5-Fluor,hexadecyl-pyrimidinium]
[1]; Table 2, HET≡N+-(CH2)x-CH3 Y-
  cmc × 10^-6 M: 0.85 × 10^-6 M

## CCCCCCCCCCCCCCCC[n+]1cc(F)c(O)cc1O [2,-4-Dihydroxy-5-Fluoro hexadecyl-pyridinium]
[2]
  <RH> hydrodynamic radius: 210 and 150

## CCCCCCCCCCCCCCCC[n+]1cc(C)c(O)cc1O [2,-4-Dihydroxy-5-methyl-hexadecyl-pyridinium]
[2]
  <RH> hydrodynamic radius: 1000 and 1500

## CCCCCCCCCCCCCCCC[n+]1ccnc(C(N)=O)c1 [2-Carboxamide-4-hexadecyl-1,4-diazinium]
[1]; Table 2, HET≡N+-(CH2)x-CH3 Y-
  cmc × 10^-6 M: 0.30 × 10^-6 M

## CCCCCCCCCCCC[n+]1csc2ccccc21 [3-Dodocyl-benzthiazolium]
[1]; Table 2, HET≡N+-(CH2)x-CH3 Y-
  cmc × 10^-6 M: 10.90 × 10^-6 M

## CCCCCCCCCCCCCCCCC(CCCCCCCCCCCCCCCC)c1cc[n+](C)cc1.[Cl-] [4-(17-tritriacontyl)-N-methylpyridinium chloride]
[3]
  competitive with: dGTP

## CCCCCCCCCCCC[n+]1ccccc1 [Dodecyl-pyridinium]
[1]
  cmc × 10^-6 M: 1.52

## O=c1[nH]c(=O)n([C@H]2C[C@H](O)[C@@H](CO)O2)cc1I [Idoxuridine, idoxuridine]
[6]; Table 1 experiment 1, Trifluoroamame 5, Idoxuridine […]100 ml
  Yield (%) of micellar incorporation: 95%
[6]; Table 1 experiment 2, Trifluoroamame 7.5, Idoxuridine 10.5 mg/100 ml
  Yield (%) of micellar incorporation: 98%
[6]; Table 1 experiment 3, Trifluoroamame 10.0, Idoxuridine 12.5 mg/100 ml
  Yield (%) of micellar incorporation: 98%
[6]; Table 1 experiment 4, Trifluoroamame 12.0, Idoxuridine […]100 ml
  Yield (%) of micellar incorporation: 98%
[6]; Table 1 experiment 5, Trifluoroamame 15.0, Idoxuridine 17.0 mg/100 ml
  Yield (%) of micellar incorporation: 97%
[6]; Table 1 experiment 6, Trifluoroamame 17.0, Idoxuridine 20.0 mg/100 ml
  Yield (%) of micellar incorporation: 96%
[6]; Table 1 experiment 7, Trifluoroamame 20.0, Idoxuridine 21.5 mg/100 ml
  Yield (%) of micellar incorporation: 98%
[6]; Table 1 experiment 8, Trifluoroamame 25.0, Idoxuridine 23.0 mg/100 ml
  Yield (%) of micellar incorporation: 100%
[6]; Table 1 experiment 9, Trifluoroamame 30.0, Idoxuridine 24.0 mg/100 ml
  Yield (%) of micellar incorporation: 100%
[6]; Table 1 experiment 10, Trifluoroamame 50.0, Idoxuridine 30.0 mg/100 ml
  Yield (%) of micellar incorporation: 100%
[7]
  lowering of the inhibition concentration compared with applications without quaternary ammonium bases: 30%

## O=C(O)C[C@H](NC(=O)CP(=O)(O)O)C(=O)O [N-(phosphonoacetyl)-aspartate]
Pyrimidine biosynthesis
  intensification of the effect on pyrimidine biosynthesis (blocking of the carbamylation of aspartate): 20 fold

## CN1[C@@H]2CC[C@H]1C[C@@H](OC(=O)C(CO)c1ccccc1)C2 (stereo partly drawn) [atropine]
Salivary secretion
  intensification of the inhibitory effect on salivary secretion: tenfold

## Clc1ccccc1C(c1ccccc1)(c1ccccc1)n1ccnc1 [clotrimazole]
fungus
  intensification of the antifungal effect by N+ tensides: ≈ 35%

## Nc1ccn([C@@H]2O[C@H](CO)[C@@H](O)[C@@H]2O)c(=O)n1 [cytarabine]
[7]
  lowering of the inhibition concentration compared with applications without quaternary ammonium bases: 30%

## Clc1ccc(COC(Cn2ccnc2)c2ccc(Cl)cc2Cl)cc1 (stereo not drawn) [econazole]
fungus
  intensification of the antifungal effect by N+ tensides: ≈ 35%

## CCCCCCCCCCCCCCCC[n+]1ccccc1.[Cl-] [hexadecylpyridinium chloride, N-(n-hexadecyl)-pyridinium chloride, reference compound]
[2]; pH 5.5
  RH (Å) (±5.0 Å): 45.0 and 50.5 and 60.0 and 65.0 and 71.5 and 75.0 and 78.0

## Clc1ccc(COC(Cn2ccnc2)c2ccc(Cl)cc2Cl)c(Cl)c1 (stereo not drawn) [miconazole]
fungus
  intensification of the antifungal effect by N+ tensides: ≈ 35%

## NC(=O)c1[nH]nc([C@@H]2O[C@H](CO)[C@@H](O)[C@H]2O)c1O [pyrazofurine]
Pyrimidine biosynthesis
  irreversible inhibition of pyrimidine biosynthesis: 20%

## CC(N)C12CC3CC(CC(C3)C1)C2.Cl (stereo not drawn) [rimantadine, α-methyl-1-adamantanemethylamine hydrochloride]
Influenza A strains [4]
  dose with the same in vitro effect as the pure active substance: 0.05 µg/mL

## O=c1[nH]c(=O)n([C@H]2C[C@H](O)[C@@H](CO)O2)cc1C(F)(F)F [trifluorothymidine]
[7]
  lowering of the inhibition concentration compared with applications without quaternary ammonium bases: 30%

## Cetyl-2,3-dihydroxy-propyl-hexadecyl-pyridinium
[2]
  <RH> hydrodynamic radius: 150.0 and 180.4 and 210.4 and 120.0

## Dodecyl-pyrimidinium
[1]; Table 2, HET≡N+-(CH2)x-CH3 Y-
  cmc × 10^-6 M: 1.20 × 10^-6 M

## Hexadecyl-4-Hydroxy-pyridinium
[1]; Table 2, HET≡N+-(CH2)x-CH3 Y-
  cmc × 10^-6 M: 0.95 × 10^-6 M

## Hexadecyl-pyrimidinium
[1]; Table 2, HET≡N+-(CH2)x-CH3 Y-
  cmc × 10^-6 M: 2.50 × 10^-6 M

## N-Hexadecyl-4-cetyl-imidazolinium
[2]
  <RH> hydrodynamic radius: 100 and 150

## erythro-9-(2-hydroxy-3-nonyl)-adenine
adenosine-desaminase
  intensification of the antitumor activity: tenfold

## polymyxin B
[8]
  plasma half life: 4.5 h
